According to patent US20040127537A1 (priority 2002, published 2004):

Key:
[1] = Example 6: buffer capacity titration of parecoxib sodium formulations with added buffer; format: physicochemical; conditions: for Improvement in buffer capacity: parecoxib sodium 40 mg/ml f.a.e., acid to adjust pH 8.5 to 7.4, with versus without buffer; for effect of added buffer on buffer capacity: parecoxib sodium formulations tested, PEG 600/WFI
Procedure: The amount of titrant used to titrate each parecoxib sodium/buffer solution was compared with that required to titrate a parecoxib solution without buffer. Percent improvement in buffer capacity was determined by comparing the amount of acid required to adjust pH from 8.5 to 7.4 in the presence versus absence of buffer.

[2] = Example 6: solubility of buffers in PEG 600/water solvent liquid; format: physicochemical; conditions: solvent liquid 65% PEG 600 and 35% water, room temperature
[3] = Example 1: stability of parecoxib sodium in candidate solubilizers (valdecoxib formed, HPLC); format: physicochemical; conditions: 40 mg/ml f.a.e., 70° C., 7 days, FIG. 1
Procedure: Formulations were prepared and sealed in Type I vials. […] Valdecoxib formed was calculated as a percentage of parecoxib initially present.

[4] = Example 3: stability of parecoxib sodium in PEG-containing solvent liquids; format: physicochemical; conditions: 70° C., 7 days, FIG. 3
Procedure: (§1) The procedure was similar to that of Example 1. Valdecoxib formed was calculated as a percentage of parecoxib initially present.

[5] = Example 4: storage stability of liquid formulations LF1-LF9 (valdecoxib formed, HPLC); format: physicochemical; conditions: PEG/water formulations of Example 4 (PEG 300, 400, 600)
Procedure: Each vial was flushed with nitrogen gas prior to stoppering.
Valdecoxib was measured by HPLC and was calculated as a percentage of parecoxib initially present.

[6] = Example 2: stability of parecoxib sodium in solvent liquids with different solubilizers; format: physicochemical; conditions: 55° C., 3 days, FIG. 2
Procedure: as §1

[7] = cited from earlier work
COX-1 = COX-1 (Homo sapiens, UniProt P23219); conditions: cited from earlier work
Chain of COX-1 (P23219 24-599): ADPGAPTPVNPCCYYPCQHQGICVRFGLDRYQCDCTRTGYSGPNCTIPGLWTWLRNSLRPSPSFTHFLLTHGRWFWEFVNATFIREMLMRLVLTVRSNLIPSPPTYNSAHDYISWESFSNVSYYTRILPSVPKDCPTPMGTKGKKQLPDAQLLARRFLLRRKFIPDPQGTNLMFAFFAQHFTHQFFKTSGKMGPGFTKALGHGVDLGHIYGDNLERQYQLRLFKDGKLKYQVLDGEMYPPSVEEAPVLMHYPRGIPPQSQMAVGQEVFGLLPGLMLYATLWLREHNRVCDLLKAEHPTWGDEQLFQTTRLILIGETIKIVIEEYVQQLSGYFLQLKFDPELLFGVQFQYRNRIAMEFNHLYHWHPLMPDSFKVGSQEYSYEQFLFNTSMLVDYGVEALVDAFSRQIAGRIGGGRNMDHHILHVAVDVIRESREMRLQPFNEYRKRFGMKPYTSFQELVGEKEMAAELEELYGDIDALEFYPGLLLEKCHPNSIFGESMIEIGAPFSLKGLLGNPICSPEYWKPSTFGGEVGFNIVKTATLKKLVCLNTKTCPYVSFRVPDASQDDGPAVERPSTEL

[8] = conversion of parecoxib to valdecoxib after parenteral administration; format: in vivo; conditions: human subject
Description: The term “equal” in this context means equal in molar amount or in absolute amount (i.e., in weight).

[9] = precipitation of parecoxib free acid on downward pH drift of composition; format: physicochemical; conditions: parecoxib salt composition, downward pH drift on storage
Description: Presence of precipitated parecoxib free acid in a parenteral composition is undesirable as it can cause local pain and irritation upon injection.

## CC(=O)[O-].[Na+] [sodium acetate]
[1]; PEG 600/WFI 55/45 % by weight
  Improvement in buffer capacity: negligible
[1]; PEG 600/WFI 65/35 % by weight
  Improvement in buffer capacity: negligible

## O=C([O-])/C=C\C(=O)[O-].[Na+].[Na+] [sodium maleate]
[1]; PEG 600/WFI 65/35 % by weight
  Improvement in buffer capacity: 21%
[1]
  effect of added buffer on buffer capacity: further improved buffer capacity

## NCC(=O)O [glycine]
[1]; PEG 600/WFI 55/45 % by weight
  Improvement in buffer capacity: negligible
[1]; PEG 600/WFI 65/35 % by weight
  Improvement in buffer capacity: negligible

## O=C1O[C@H]([C@@H](O)CO)C([O-])=C1O.[Na+] [sodium ascorbate]
[1]; PEG 600/WFI 65/35 % by weight
  Improvement in buffer capacity: 14-37%^1
[1]
  effect of added buffer on buffer capacity: further improved buffer capacity

## NC(CO)(CO)CO [tris, 2-amino-2-(hydroxymethyl)-1,3-propanediol]
[1]; PEG 600/WFI 55/45 % by weight
  Improvement in buffer capacity: 229%
[1]; PEG 600/WFI 65/35 % by weight
  Improvement in buffer capacity: 63%
[1]
  effect of added buffer on buffer capacity: further improved buffer capacity
[2]
  Solubility > 0.01 M: yes

## CCC(=O)NS(=O)(=O)c1ccc(-c2c(-c3ccccc3)noc2C)cc1 [parecoxib sodium]
[3]; PEG 300, DMAC, 95% ethanol or 10 mM phosphate buffer pH 8.1 versus propylene glycol
  valdecoxib formed (stability): less valdecoxib was formed
[3]; in presence of glycerin
  conversion of parecoxib to valdecoxib: very rapid
[4]; 65% PEG 300, PEG 400 or PEG 600 in water
  stability (valdecoxib formed): acceptably stable
[4]; 65% PEG 600 or PEG 400 versus 65% PEG 300 in water
  valdecoxib formed, comparison of PEG grades: less valdecoxib formed
[5]
  parecoxib sodium stability as a function of PEG molecular weight: increases with increasing PEG molecular weight
[1]; less concentrated PEG solutions
  buffering effect of parecoxib sodium itself: weaker buffering effect
[1]; more highly concentrated PEG solutions
  buffering effect of parecoxib sodium itself: excellent buffer
[6]; propylene glycol containing solvent liquids
  stability (valdecoxib formed): less so
[6]; solvent liquids comprising PEG 300, ethanol or DMAC, with or without water
  stability (valdecoxib formed): stable
[6]; solvent liquids comprising glycerin
  conversion to valdecoxib: significant conversion to valdecoxib

## CC(O)C(=O)[O-].[Na+] (stereo not drawn) [sodium lactate]
[1]; PEG 600/WFI 65/35 % by weight
  Improvement in buffer capacity: negligible

## Cc1onc(-c2ccccc2)c1-c1ccc(S(N)(=O)=O)cc1 [valdecoxib]
[7]
  solubility in water: about 10 μg/ml
COX-1
  in vitro inhibitory activity against COX-1: weak inhibitor

## N=C(N)NCCC[C@H](N)C(=O)O [L-arginine]
[1]; PEG 600/WFI 65/35 % by weight
  Improvement in buffer capacity: negligible

## CCC(=O)NS(=O)(=O)c1ccc(-c2c(-c3ccccc3)noc2C)cc1 [parecoxib, N-[[4-(5-methyl-3-phenylisoxazol-4-yl)phenyl]sulfonyl]propanamide]
[8]
  conversion to valdecoxib after parenteral administration: rapidly and completely converted to valdecoxib
[9]
  pH of the composition below which parecoxib precipitates in free acid form: below 7.4
COX-1
  in vitro inhibitory activity against COX-1: weak in vitro inhibitory activity

## N[C@@H](Cc1c[nH]cn1)C(=O)O [histidine]
[2]
  Solubility > 0.01 M: no
